{
  "source": "patent US10441594B2",
  "about": "“Methods of making quinoa leachates and uses thereof” (priority 2013, dated 2019)",
  "key": {"[1]": {"test_system": "diet-induced obese, hyperglycemic mice", "conditions": "10 mg/kg body weight for 13 wk; cited from earlier work"}, "[2]": {"test_system": "diet-induced obese, hyperglycemic mice (C57BL/6J)", "assay": "Acute hypoglycemic study in diet-induced obese mice (fasting blood glucose)", "format": "in vivo", "conditions": "300 mg/kg oral", "protocol": "An acute hypoglycemic study in diet-induced obese mice was performed as described previously (Cheng et al., Food Chem 135: 2994-3002, 2012, incorporated herein by reference). Briefly, five-week-old male C57Bl/6J mice (Jackson Labs), acclimated for 1 week with ad libitum access to chow (Purina, No. 5014) and water, and maintained on a very high-fat diet (VHFD) containing 60% fat-derived calories (D12492; Research Diets) for an additional 15 weeks to induce obesity, insulin resistance, and hyperglycemia. Food intake and body weight were monitored weekly. Following a 4-hour fasting period, fasting blood glucose (FBG) was measured using an AlphaTRAK® handheld glucometer (Abbott Labs, Inc.), and mice were randomly divided into FBG-balanced experimental groups.\nQuinoa leachate (QL) was formulated in 70% Labrasol® (Gattefossé Corp., Paramus, N.J.). The biological activity of QL was tested using an oral ingestion of 0.25 ml per 50 g body weight of vehicle (70% Labrasol®) or QL (250 and 500 mg/kg) (n=7). Metformin® (300 mg/kg, dissolved in water) was administered as a positive control. FBG was reassessed 4 hours post-treatment. Mean FBG values before and after treatment were calculated for each group and compared using paired t-tests in Microsoft Excel. Additionally, final % FBG (final FBG/initial FBG×100) of each mouse was calculated 4 hours post-treatment. […]"}},
  "data": [
    {"smiles": "CC(C)(O)CC[C@@H](O)[C@](C)(O)[C@H]1CC[C@@]2(O)C3=CC(=O)[C@@H]4C[C@@H](O)[C@@H](O)C[C@]4(C)[C@H]3CC[C@]12C", "note": "[20-HE, 20-hydroxyecdysone]", "values": [
      {"measurement": "blood glucose levels", "setting": "[1]", "result": "significantly lowered blood glucose levels"},
      {"measurement": "reduction of adiposity compared with control", "setting": "[1]", "result": 41, "unit": "%"}
    ]},
    {"smiles": "CN(C)C(=N)N=C(N)N", "note": "[Metformin]", "values": [
      {"measurement": "hypoglycemic effect compared with control (1-way ANOVA, Dunnett's post hoc test)", "setting": "[2]; 4 hours", "result": "significant hypoglycemic effects compared with control"},
      {"measurement": "FBG levels 4 hours after oral administration versus before treatment (paired t-test)", "setting": "[2]; positive control", "result": "significantly lowered FBG levels"}
    ]}
  ]
}
